The values that follow come from patent publication US20060035879A1, “Organic Compounds” (priority 2002, published 2006).

A short description of data set [1]: Drug release from polymer coatings in aqueous solution. It counts as physicochemical. Conditions: PBS pH 7.4 or PEG/water 40/60 v/v, 37°, solutions changed daily; stable = less than 10% variation of the drug release rate. How it is done:
(§1) A stent (e.g. a Multi-Link Vision stent, Guidant Corp.; or a DRIVER stent, Medtronic Corp.) is weighed and then mounted on a rotating or other support for coating with a polymeric or other synthetic or biological carrier used as a drug reservoir. In an exemplary carrier application procedure, while the stent is rotating, a 100 μl aliquot of a solution of polylactide glycolide, 0.75 mg/ml of pimecrolimus and 0.0015 mg/ml 2,6-di-tert-butyl-4-methylphenol dissolved in a 50:50 mixture of methanol and tetrahydrofuran, is coated onto it. The coated stent is removed from the support and allowed to air-dry. After a final weighing the amount of coating on the stent is determined.
Drug Release from Polymer Coatings in Aqueous Solution
Four 2 cm pieces of stents coated as described in Example 3 above are placed into 100 ml of PBS having a pH of 7.4. Another 4 pieces from each series are placed into 100 ml of PEG/water solution (40/60 v/v, MW of PEG=400). The stent pieces are incubated at 37° in a shaker. The buffer and PEG solutions are changed daily and different assays are performed on the solution to determine the released pimecrolimus concentrations. […] The term “stable pimecrolimus” means that less than 10% variation of the drug release rate is observed.

Data set [2] has as its system rat carotid artery balloon injury. In words: Rat carotid artery balloon injury model. The class given is in vivo.
Data set [3] relates to New Zealand White rabbit iliac arteries. In words: Rabbit iliac stent model (in-stent restenosis). It counts as in vivo. The following applies: oral gavage, vs placebo. How it is done:
Inhibition of In-Stent Restenosis and Proximal and Distal Lesion Development at 28 Days in the Rabbit Iliac Stent Model A combined angioplasty and stenting procedure is performed in New Zealand White rabbit iliac arteries. Iliac artery balloon injury is performed by inflating a 3.0×9.0 mm angioplasty balloon in the mid-portion of the artery followed by “pull-back” of the catheter for 1 balloon length. Balloon injury is repeated 2 times, and a 3.0×12 mm stent is deployed at 6 atm for 30 seconds in the iliac artery. Balloon injury and stent placement is then performed on the contralateral iliac artery in the same manner. A post-stent deployment angiogram is performed. All animals receive oral aspirin 40 mg/day daily as anti-platelet therapy and are fed standard low-cholesterol rabbit chow. Twenty-eight days after stenting, animals are anesthetized and euthanized and the arterial tree is perfused at 100 mmHg with lactated Ringer's solution for several minutes, then perfused with 10% formalin at 100 mmHg for 15 minutes. The vascular section between the distal aorta and the proximal femoral arteries is excised and cleaned of periadventitial tissue. Three sections of artery are sampled: the stented section, the artery 5 mm immediately proximal to the stent and the artery 5 mm immediately distal to the stent is embedded in plastic. Sections are taken from the proximal, middle, and distal portions of each stent. Serial sections are also taken of the first 2 mm proximal and distal to the stent. Sections are stained with hematoxylin-eosin and Movat pentachrome stains. […] The neointima and neointimal thickness is measured both at and between the stent struts. The vessel area is measured as the area within the EEL. Cells staining positively as macrophages are counted in the sections taken from the stented area of artery. Data are expressed as mean ±SEM. Statistical analysis of the histologic data is accomplished using ANOVA due to the fact that two stented arteries are measured per animal with a mean generated per animal. […]

Data set [4] can be described thus: Drug release from polymer coatings in plasma. The following applies: citrated human plasma, 37°, changed daily; stable = less than 10% variation of the drug release rate. The class given is physicochemical. How it is done: as §1
Drug Release from Polymer Coatings in Plasma
Release of pimecrolimus in plasma is also studied. 1 cm pieces of a coated stent are put into 1 ml of citrated human plasma (from Helena Labs) in lyophilized form and reconstituted by adding 1 ml of sterile deionized water. Three sets of stent plasma solutions are incubated at 37° and the plasma is changed daily. Different assays are performed on the solution to determine the released pimecrolimus concentrations.

Data set [5] relates to allogeneic kidney transplantation. The following applies: oral administration; cited from earlier work.

On to `CC[C@@H]1/C=C(\C)C[C@H](C)C[C@H](OC)[C@H]2O[C@@](O)(C(=O)C(=O)N3CCCC[C@H]3C(=O)O[C@H](/C(C)=C/[C@@H]3CC[C@H](Cl)[C@H](OC)C3)[C@H](C)[C@@H](O)CC1=O)[C@H](C)C[C@@H]2OC` [pimecrolimus, {[1E-(1R,3R,4S)]1R,9S,12S,13R,14S,17R,18E,21S,23S,24R,25S,27R}-12-[2-(4-chloro-3-methoxycyclohexyl)-1-methylvinyl]-17-ethyl-1,14-dihydroxy-23,25-dimethoxy-13,19,21,27-tetramethyl-11,28,dioxa-4-azatricyclo [22.3.1.0(4,9)]octacos-18-ene-2,3,10,16-tetraone], for which the “pimecrolimus release from coated stents” value in data set [1] is “stable pimecrolimus release”. For the same compound, the constrictive remodeling entry in data set [2] (local administration to the adventitia) was “potent inhibition”. The “infiltration of CD45+ leukocytes” value in data set [2] (local administration to the adventitia via catheter/Alzet minipump, day 1) is “potent inhibition”. Further, in data set [2] (local administration to the adventitia, early 9 days and late 21-28 days post-ballooning), the “early and late neointimal lesions” value is “potent inhibition”. The “CD45-positive leukocyte infiltration into the vessel wall and adventitia” value in data set [2] (oral dosing, 1 day post-balloon injury) is given as “significantly reduce”. For the same compound, the “neointimal lesion formation following balloon injury” value in data set [2] (oral dosing, at 9 and 12 days) is listed as “significantly reduce”. For the same compound, the “extent of restenotic lesion formation” value in data set [3] (28 days after stenting) is “marked reduction”. For the same compound, in data set [3] (28 days), the “lesion formation in the portions of artery immediately proximal and immediately distal to the stent” value is on record as “inhibited”; the “number of inflammatory cells, especially in the area surrounding the stent struts” value is “significantly reduced”. Also, in data set [4], the “pimecrolimus release from coated stents in plasma” value is on record as “stable pimecrolimus release”.
For the compound `C=CC[C@@H]1/C=C(\C)C[C@H](C)C[C@H](OC)[C@H]2O[C@@](O)(C(=O)C(=O)N3CCCC[C@H]3C(=O)O[C@H](/C(C)=C/[C@@H]3CC[C@@H](O)[C@H](OC)C3)[C@H](C)[C@@H](O)CC1=O)[C@H](C)C[C@@H]2OC` [tacrolimus], in data set [5], the “minimum effective dose (MED)” value is given as 14 mg/kg.
